In patent US9512114B2, “Substituted aminopyrimidine compounds and methods of use” (Calitor Sciences, LLC, priority 2013, dated 2016):

Columns and labels:
[1] = biological target: PI3K (p120γ) (h) (Homo sapiens (Human), UniProt P48736); assay: PI3K (p120γ) (h) non-radioactive HTRF kinase assay; type: biochemical; details: performed at Millipore UK Ltd
Procedure: The above assay procedure can be used to determine the IC50 for inhibition and/or the inhibition constant, Ki.
PI3K (p120γ) (h) [Non-Radioactive Assay]
PI3K (p120γ) (h) is incubated in assay buffer containing 10 μM phosphatidylinositol-4, 5-bisphosphate and MgATP (concentration as required). The reaction is initiated by the addition of the MgATP mix. After incubation for 30 minutes at room temperature, the reaction is stopped by the addition of stop solution containing EDTA and biotinylated phosphatidylinositol-3,4,5-trisphosphate. Finally, detection buffer is added, which contains europium-labelled anti-GST monoclonal antibody, GST-tagged GRP1 PH domain and streptavidin-allophycocyanin. The plate is then read in timeresolved fluorescence mode and the homogenous time-resolved fluorescence (HTRF) signal is determined according to the formula HTRF=10000×(Em665 nm/Em620 nm).
The kinase assays described herein were performed at Millipore UK Ltd, Dundee Technology Park, Dundee DD2 1SW, UK.

[2] = Compound stability in human liver microsomes; type: in vitro ADME; details: pH 7.4; for CLint scaled at 5 μM: liver microsomes, in vivo CLint extrapolated from human liver microsome incubation; for half-life at 5 μM: human liver microsomes 0.5 mg protein/mL, compound 5 μM, NADPH 1.0 mM, 37° C., read-out: Human T1/2
In short: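 Human or rat liver microsomes (0.5 mg protein/mL) incubated with compound (5 μM) and NADPH (1.0 mM) in 100 mM potassium phosphate, pH 7.4, 0.05% DMSO, 37° C, sampled 0–60 min and quenched with cold acetonitrile. Remaining compound quantified by LC/MS/MS as % of time zero; CLint extrapolated.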

[3] = Pharmacokinetic profiles in dogs; type: in vivo; details: Dog; for clearance / AUC(0-t) / half-life / Vd: iv dosing 1 mg/kg; for F: oral vs iv (iv 1 mg/kg; p.o. generally 10 mg/kg); for AUC(0-t) / half-life / Vd: plasma; for Vd: read-out: Vss
Procedure: (§1) The compounds disclosed herein are assessed in pharmacokinetic studies in mice, rats, dogs or monkeys. The compounds are administered as a water solution, 2% HPMC+1% TWEEN®80 in water solution, 5% DMSO+5% solutol in saline, 4% MC suspension or capsule. For the intravenous administration, the animals are generally given at 1 or 2 mg/kg dose. For the oral (p.o.) dosing, mice and rats are generally given 5 or 10 mg/kg dose, and dogs and monkeys are generally given 10 mg/kg dose. The blood samples (0.3 mL) are drawn at 0.25, 0.5, 1.0, 2.0, 3.0, 4.0, 6.0, 8.0, 12 and 24 h time points or 0.083, 0.25, 0.5, 1.0, 2.0, 4.0, 6.0, 8.0 and 24 h time points and centrifuged at 3,000 or 4000 rpm for 2 to 10 min. The plasma solutions are collected, stored at −20° C. or −70° C. until analyzed by LC/MS/MS as described above.

[4] = Pharmacokinetic profiles in rats; type: in vivo, rat; details: for Cl/F / AUC(0-t) / half-life / Vd: iv dosing 1 mg/kg; for F: oral vs iv (iv 1 mg/kg; p.o. generally 5 or 10 mg/kg); for AUC(0-t) / half-life / Vd: rat, plasma; for Vd: read-out: Vss
In short: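 In rats, dogs and monkeys, IV dose was generally 1 or 2 mg/kg. Oral dose was generally 5 or 10 mg/kg in rats and 10 mg/kg in dogs and monkeys, given as solution, suspension or capsule. Plasma sampled over up to 24 h and analysed by LC/MS/MS.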

[5] = Pharmacokinetic profiles in monkeys; type: in vivo; details: Monkey; for Cl/F / AUC(0-t) / half-life / Vd: iv dosing 1 mg/kg; for F: oral vs iv (iv 1 mg/kg; p.o. generally 10 mg/kg); for AUC(0-t) / half-life / Vd: plasma; for Vd: read-out: Vss
Procedure: as §1

Sequence of PI3K (p120γ) (h) (P48736 whole entry): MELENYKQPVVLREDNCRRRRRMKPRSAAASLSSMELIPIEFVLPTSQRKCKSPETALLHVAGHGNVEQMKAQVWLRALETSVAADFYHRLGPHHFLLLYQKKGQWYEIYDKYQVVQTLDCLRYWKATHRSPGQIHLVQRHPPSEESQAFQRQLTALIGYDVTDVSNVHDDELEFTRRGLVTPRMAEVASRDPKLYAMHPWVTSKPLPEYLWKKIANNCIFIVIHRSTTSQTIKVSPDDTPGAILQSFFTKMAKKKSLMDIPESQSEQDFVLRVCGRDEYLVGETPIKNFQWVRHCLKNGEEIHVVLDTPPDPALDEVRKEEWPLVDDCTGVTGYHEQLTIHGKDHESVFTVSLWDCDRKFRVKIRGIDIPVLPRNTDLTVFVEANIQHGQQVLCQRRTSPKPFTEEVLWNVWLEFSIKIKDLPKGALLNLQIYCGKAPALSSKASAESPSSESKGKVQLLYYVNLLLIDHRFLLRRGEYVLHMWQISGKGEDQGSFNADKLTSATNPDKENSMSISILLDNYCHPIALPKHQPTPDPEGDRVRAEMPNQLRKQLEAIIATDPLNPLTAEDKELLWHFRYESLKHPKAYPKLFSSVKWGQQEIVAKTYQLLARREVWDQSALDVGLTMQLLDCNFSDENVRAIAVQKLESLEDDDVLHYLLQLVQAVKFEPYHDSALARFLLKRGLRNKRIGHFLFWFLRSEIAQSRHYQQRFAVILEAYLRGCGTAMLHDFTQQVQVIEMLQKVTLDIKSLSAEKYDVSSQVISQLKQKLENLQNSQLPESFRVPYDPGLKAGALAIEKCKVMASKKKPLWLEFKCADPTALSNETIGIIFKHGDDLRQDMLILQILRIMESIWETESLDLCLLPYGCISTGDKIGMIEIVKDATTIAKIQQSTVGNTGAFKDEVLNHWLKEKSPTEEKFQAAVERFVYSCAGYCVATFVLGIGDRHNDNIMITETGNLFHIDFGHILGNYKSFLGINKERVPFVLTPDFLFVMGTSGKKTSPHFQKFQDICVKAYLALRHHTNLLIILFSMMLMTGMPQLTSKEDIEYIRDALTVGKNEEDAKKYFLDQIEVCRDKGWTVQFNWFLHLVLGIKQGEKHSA

Row | SMILES | IC50 [1] [nM] | CLint scaled at 5 μM [2] [mL/min/kg] | half-life at 5 μM [2] [min] | clearance [3] [mL/min/kg] | F [3] [%] | AUC(0-t) [3] [ng·h/mL] | half-life [3] [min] | Vd [3] [L/kg] | Cl/F [4] [mL/min/kg] | F [4] [%] | AUC(0-t) [4] [ng·h/mL] | half-life [4] [min] | Vd [4] [L/kg] | Cl/F [5] [mL/min/kg] | F [5] [%] | AUC(0-t) [5] [ng·h/mL] | half-life [5] [min] | Vd [5] [L/kg]
1 | Cc1nnc(-c2c(N)ncnc2N[C@@H](C)c2cc3cccc(Cl)c3c(=O)n2-c2ccccc2)o1 [Ex. 9, (S)-3-(1-((6-amino-5-(5-methyl-1,3,4-oxadiazol-2-yl)pyrimidin-4-yl)amino)ethyl)-8-chloro-2-phenylisoquinolin-1(2H)-one] | 255 | 83.7 | 20.8 | 23.7 | 72.99 | 695 | 75 | 2.04 | 17.3 | 66.87 | 964 | 82.8 | 1.04 | 14.8 | 179.7 | 1120 | 73.8 | 1.17
2 | Cc1noc(-c2c(N)ncnc2N[C@@H](C)c2cc3cccc(Cl)c3c(=O)n2-c2ccccc2)n1 [Ex. 8, (S)-3-(1-((6-amino-5-(3-methyl-1,2,4-oxadiazol-5-yl)pyrimidin-4-yl)amino)ethyl)-8-chloro-2-phenylisoquinolin-1(2H)-one] | 74 | 196 | 8.88 | 12.2 | 52.85 | 1350 | 102 | 1.43 | 57.8 | 93.06 | 291 | 55.2 | 1.94 | 24.3 | 13.1 | 711 | 39 | 1.2
3 | Cc1noc(-c2c(N)ncnc2N[C@@H](C)c2cc3cccc(-c4cnn(C)c4)c3c(=O)n2C2CC2)n1 [Ex. 26, (S)-3-(1-((6-amino-5-(3-methyl-1,2,4-oxadiazol-5-yl)pyrimidin-4-yl)amino)ethyl)-2-cyclopropyl-8-(1-methyl-1H-pyrazol-4-yl)isoquinolin-1 (2H)-one] | 65 | 51.8 | 33.6 | – | – | – | – | – | 50.3 | 121.0 | 337 | 50.4 | 3.14 | – | – | – | – | –
4 | Cc1nnc(-c2c(N)ncnc2N[C@@H](C)c2cc3cccc(Cl)c3c(=O)n2C2CC2)o1 [Ex. 4, (S)-3-(1-((6-amino-5-(5-methyl-1,3,4-oxadiazol-2-yl)pyrimidin-4-yl)amino)ethyl)-8-chloro-2-cyclopropylisoquinolin-1(2H)-one] | 387 | 85.3 | 20.4 | – | – | – | – | – | 33.3 | 78.78 | 498 | 58.8 | 2.4 | – | – | – | – | –
5 | Cc1nnc(-c2c(N)ncnc2N[C@@H](C)c2cc3cccc(-c4cnn(C)c4)c3c(=O)n2C2CC2)o1 [Ex. 25, (S)-3-(1-((6-amino-5-(5-methyl-1,3,4-oxadiazol-2-yl)pyrimidin-4-yl)amino)ethyl)-2-cyclopropyl-8-(1-methyl-1H-pyrazol-4-yl)isoquinolin-1 (2H)-one] | 325 | 28.1 | 61.9 | – | – | – | – | – | 33.3 | 81.0 | 497 | 79.2 | 3.31 | – | – | – | – | –
